# Laboratory results from patent US20090017489A1, “Methods For Modulating The Development Of Dopamine Neuron By The Dopamine D2 Receptor And Compositions Thereof” (Korea University Industry And Academy Cooperation Foundation, priority 2006, published 2009).
# Entries after “also recorded” stand apart in the source; their conditions may differ.
# Assays:
# [1] = test system: D2R-mediated Nurr1 activation; test: NurRE-dependent luciferase reporter gene activation assay in HEK293T cells transfected with D2R, Nurr1 and NurRE-luc; assay type: cell-based
# Procedure: To investigate the effect of D2R on the number of TH-positive neurons and Nurr1 expression, Nur response element (NurRE)-dependent reporter gene activation assay was carried out to determine whether or not D2R activation might induce Nurr1 activation (Philips et al, Mol Cell Biol., 1997, 17:5946-5951; Maira et al, Mol Cell Biol., 1999, 19:7549-7557). HEK293T cells distributed from Korean cell line Bank were cultured in DMEM (Dulbeco's modified eagle's medium; Invitrogen, Carlsbad, Calif.) supplemented with 10% FBS (fetal bovine serum; Invitrogen, Carlsbad, Calif.) and transfected the same with dopamine receptors, Nurr1, and NurRE gene using a jetPEI transfection reagent (Qbiogene, Carlsbad, Calif.). In detail, 5˜7×10^5 cells confluent monolayers of HEK293 cells were transfected with 1.5 μg of pSV-D2R or pSV-D1R, 1.5 μg of pCMX-Nurr1, 1.5 μg of pXP1-luc containing POMC gene promoter and NurRE (pXP1-NurRE-luc), and 0.5 μg of pCH110. In case of the transfection with Ras dominant-negative mutant, cells were transfected with 1.0 μg of pMT-RasN17 or pSK-null vector, 1.0 μg of pSV-D2R, 1.0 μg of pCMX-Nurr1, 1.0 μg of pXP1-NurRE-luc, and 0.5 μg of pCH110. After 3 hours, the transfection mixture was replaced with fresh growth medium. Assays were performed 48 hours after transfection. Cells were preincubated overnight in serum-free growth medium before treatment with agonists. The cells were treated with various concentrations of dopamine or SKF38393, respectively, for 6 hours at 37° C. with or without preincubation of haloperidol (1 μM for 5 minutes), pertussis toxin (PTX) (100 ng/ml for 12 hours), H-89 (1 μM for 20 minutes), and PD98059 (10 μM for 30 minutes). After treatment, the cells were lysed and assayed for luciferase activity using the luciferase assay system (Promega, Madison, Wis.), and luminescence was measured using a 96-well luminometer (Microlumat; EG & Berthold, Bad Wilbad, Germany).
# The data obtained were fitted to a sigmoid curve with a variable slope factor using nonlinear squares regression in GraphPad Prism software, which is shown in FIG. 5.
# [2] = test system: TH-positive neurons in primary mesencephalic cultures from WT and D2R−/− mice; test: MPP+ treatment of primary mesencephalic dopaminergic neuronal cultures, TH-positive cell counting; assay type: cell-based, mouse; conditions: for number of surviving TH-positive neurons: 10 μM MPP+, 24 hours
# Excerpt: (§1) D2R−/− mice and wild-type (WT) mice were obtained by mating D2R−/− mice and heterozygous mice, purchased from Institut de Genetiqul et Biologie Moleculaire et celluaire (Strasbourg, France), and their genotypes were identified by Southern hybridization analyses (An J J et al., Mol Cell Neurosci. 2004, 25: 732-741). Insemination was confirmed by vaginal plug and considered to be embryonic day 0 (E0). Pregnant mothers were killed at E14 in accordance with Society for Neuroscience Guidelines. To prepare primary mesencephalic neuronal cultures, the mesencephalon dissected from 14 day gestation mouse embryo was incubated with 0.1% of trypsin in HBSS for 10 minutes at 37° C. and triturated with a constricted Pasteur pipette in high-glucose DMEM media supplemented with 10% FBS (Invitrogen, San Diego, Calif.), 1.4 mM L-glutamine, and 6.0 g/L glucose. The neurons were plated at 1.0×10^5 cells per 18×18 mm coverslip (Marienfeld, Lauda-Konigshofen, Germany) or 2.0×10^5 cells per six-well plates precoated with 50 μg/ml poly-D-lysine and 2 μg/ml laminin (Sigma, St. Louis, Mo.). The neurons were maintained at 37° C. in a humidified 5% CO2 atmosphere in Neurobasal media supplemented with B27 and GlutaMax-1.
# To determine whether the absence of dopamine D2 receptor (D2R) might affect the number of dopaminergic neurons, dopaminergic neurons, which were isolated from mesencephalons of wild-type (WT) and D2R−/− embryonic mice, were incubated on slides with 1.0×10^5 cells and precoated with 50 μg/ml poly-D-lysine and 2 μg/ml laminin (Sigma, St. Louis, Mo.) at 37° C. for 5 days, followed by performing immunofluorescence staining. […] Using a microscope equipped with an metamorph imaging system (Universal Imaging Corporation, West Chester, Pa.) in 20 randomly selected fields per each slide, cell counts and morphometric analysis were made in randomly selected unbiased counting frames (>40 frames out of 81 grids were counted). […]
# [3] = test system: TH-positive dopaminergic neurons in mesencephalic cultures from WT and D2R−/− mice; test: Number of TH-positive neurons and neurite length in primary mesencephalic cultures; assay type: cell-based, mouse
# Excerpt: as §1
# To determine whether the absence of dopamine D2 receptor (D2R) might affect the number of dopaminergic neurons, dopaminergic neurons, which were isolated from mesencephalons of wild-type (WT) and D2R−/− embryonic mice, were incubated on slides with 1.0×10^5 cells and precoated with 50 μg/ml poly-D-lysine and 2 μg/ml laminin (Sigma, St. Louis, Mo.) at 37° C. for 5 days, followed by performing immunofluorescence staining. The immunofluorescence staining was performed such that primarily cultured dopaminergic neurons were fixed with 4% paraformaldehyde for 20 minutes at room temperature (RT) and blocked for 1 hour in PBS containing 5% normal horse serum and 0.2% Triton X-100. Then, the neurons were incubated with a rabbit polyclonal anti-tyrosine hydroxylase (TH) (1:1000; Pel-Freez, Rogers, Ark.) in PBS containing 1% normal horse serum and 0.2% Triton X-100 at 4° C. for over 16 hours, and followed by staining according to avidin-biotin immunohistochemical procedures (Vector Laboratories, Burlingame, Calif.). Using a microscope equipped with an metamorph imaging system (Universal Imaging Corporation, West Chester, Pa.) in 20 randomly selected fields per each slide, cell counts and morphometric analysis were made in randomly selected unbiased counting frames (>40 frames out of 81 grids were counted).
# Thereafter, the treated cells were fixed and stained in the same manner as in EXAMPLE 2 for counting the number TH-positive cells and analyzing the neuritic shape (FIG. 6A).
# Thereafter, the neurons were treated with 1 μM quinpirol.
# [4] = test system: phosphorylated ERK (p-ERK) in mesencephalic neurons from WT and D2R−/− mice; test: ERK phosphorylation in mesencephalic neurons (immunofluorescence and Western blot); assay type: cell-based, mouse; conditions: Western blot
# Procedure: Then, cells were fixed in the same manner as in EXAMPLE 2, a rabbit polyclonal anti-TH (1:1000; Pel-Freez) and a mouse monoclonal anti-phosphorylated ERK (p-ERK) (E10; 1:200; Cell Signaling, Beverly, Mass.) were reacted at 4° C. for 12 hours. Thereafter, the resultant neurons were stained at RT for 1 hour with two fluorescent antibodies, that is, Alexa Fluor 568 goat anti-rabbit IgG and Alexa Fluor 488 goat anti-mouse IgG (1:200; Molecular Probes, Eugene, Oreg.). After staining, ERK-positive neurons among TH-positive neurons were examined.
# To observe immunofluorescent images, a confocal microscope system (Nikon Eclipse fluorescence microscope, TE2000-U, Nikon, Kanagawa, Japan; Ultraview RS confocal scanner, Perkin elmer, Wellesley, Mass.) or a fluorescence microscope (Axiovert 2000 microscope with epifluorescence unit, Zeiss, Zena, Germany) was used. The Western blot analysis was carried out in the following conditions. […] The resultant mixture was homogenized with probe type sonicator on ice, and followed by centrifugation at 13,000×g for 10 minutes at 4° C. Protein (50 μg), as measured by Bradford protein assay, was subjected to electrophoresis on 10% SDS-PAGE. […]
# [5] = test system: dopamine D1 receptor (D1R)-mediated Nurr1 activation; test: NurRE-dependent luciferase reporter gene activation assay in HEK293T cells transfected with D1R; assay type: cell-based
# Procedure: To investigate the effect of D2R on the number of TH-positive neurons and Nurr1 expression, Nur response element (NurRE)-dependent reporter gene activation assay was carried out to determine whether or not D2R activation might induce Nurr1 activation (Philips et al, Mol Cell Biol., 1997, 17:5946-5951; Maira et al, Mol Cell Biol., 1999, 19:7549-7557). HEK293T cells distributed from Korean cell line Bank were cultured in DMEM (Dulbeco's modified eagle's medium; Invitrogen, Carlsbad, Calif.) supplemented with 10% FBS (fetal bovine serum; Invitrogen, Carlsbad, Calif.) and transfected the same with dopamine receptors, Nurr1, and NurRE gene using a jetPEI transfection reagent (Qbiogene, Carlsbad, Calif.). In detail, 5˜7×10^5 cells confluent monolayers of HEK293 cells were transfected with 1.5 μg of pSV-D2R or pSV-D1R, 1.5 μg of pCMX-Nurr1, 1.5 μg of pXP1-luc containing POMC gene promoter and NurRE (pXP1-NurRE-luc), and 0.5 μg of pCH110. […] After treatment, the cells were lysed and assayed for luciferase activity using the luciferase assay system (Promega, Madison, Wis.), and luminescence was measured using a 96-well luminometer (Microlumat; EG & Berthold, Bad Wilbad, Germany).
# [6] = PD98059 treatment versus control without PD98059
# [7] = D2R−/− mice, 1 μM haloperidol for 5 minutes then 1 μM quinpirole, versus control without haloperidol
# [8] = WT and D2R−/− mice treated with haloperidol
smiles,measurement,setting,value
O=S(=O)(NCCNC/C=C/c1ccc(Br)cc1)c1cccc2cnccc12 [H-89],D2R-induced NurRE-dependent luciferase activation in the presence of PKA inhibitor,[1]; H-89 1 μM for 20 minutes,did not give rise to a significant change
"C[n+]1ccc(-c2ccccc2)cc1 [MPP^+, 1-Methyl-4-phenylpyridinium]",loss of dopaminergic neurons,"[2]; 1 to 10 μM MPP+ for 24 hours, D2R−/− versus WT cultures",more significant loss of dopaminergic neurons in the D2R−/− mice than in WT mice
same,number of surviving TH-positive neurons,[2]; D2R−/− mice cultures,40%
same,number of surviving TH-positive neurons,[2]; WT mice cultures,54%
COc1cccc(-c2cc(=O)c3ccccc3o2)c1N [PD98059],Nurr1 activation by dopamine in the presence of MEK inhibitor,[1]; PD98059 10 μM for 30 minutes,noticeably reduced
same,average length of neurites,[3]; [6],reduced
same,number of TH-positive neurons,[3]; [6],slightly reduced
same,phosphorylated ERK after quinpirole with MEK inhibitor,[4]; 50 μM PD98059 for 30 minutes plus quinpirole,neither WT nor D2R−/− neurons showed phosphorylated ERK
Oc1cc2c(c(Cl)c1O)CCNCC2c1ccccc1 (centres unmarked) [SKF81297],Nurr1 activation by D1R-specific agonist,[5],no significant change
NCCc1ccc(O)c(O)c1 [dopamine],luciferase activation relative to control group,"[1]; HEK293T transfected with D2R, Nurr1 and NurRE-luc, dopamine at various concentrations, 6 hours",about 180%
same,change in luciferase activation,"[1]; dopamine, in the absence of Nurr1 or D2R",no change in the activation
O=C(CCCN1CCC(O)(c2ccc(Cl)cc2)CC1)c1ccc(F)cc1 [haloperidol],D2R-mediated Nurr1 activation by dopamine after antagonist,[1]; haloperidol 1 μM preincubation for 5 minutes,reduced; also recorded: inhibited or decreased
same,neuritic extension,[3]; [7],no changes
same,number of TH-positive neurons,[3]; [7],no changes
same,average length of the neurites,[3]; [8],decreased or showed insignificant changes
same,number of dopaminergic neurons,[3]; [8],decreased or showed insignificant changes
same,phosphorylated ERK after quinpirole with antagonist,[4]; 1 μM haloperidol for 5 minutes plus quinpirole,neither WT nor D2R−/− neurons showed phosphorylated ERK
